Data taken from the supplement of paper PMC10307832.

Legend:
Experiment in all cases: relative viability (nuclei count vs DMSO), 5 days (fraction); higher = more cells survive
[1] = compound: COc1cc(N2CCC(N3CCN(C)CC3)CC2)ccc1Nc1ncc(Cl)c(Nc2ccccc2S(=O)(=O)C(C)C)n1 [NVP-TAE684] + CC1(C)CCC(c2ccc(Cl)cc2)=C(CN2CCN(c3ccc(C(=O)NS(=O)(=O)c4ccc(N[C@H](CCN5CCOCC5)CSc5ccccc5)c(S(=O)(=O)C(F)(F)F)c4)cc3)CC2)C1 [Navitoclax] (partner 0.5 µM)
Procedure, shortened: (§1)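 For relative viability, nuclei counts in treated wells were divided by those in vehicle wells. Lung cancer cell lines had been pin-tool dosed in 1536-well plates the day after seeding and cultured for 5 days, then fixed and stained in one step (final 0.05% Triton X-100, 1% formaldehyde, 1 ug/ml Hoechst) and imaged at 4×. Doses were one drug alone or a fixed anchor-drug dose plus five library-drug doses (not always all listed) in √10 steps, and values are duplicate-plate medians.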

[2] = compound: COc1cc(N2CCC(N3CCN(C)CC3)CC2)ccc1Nc1ncc(Cl)c(Nc2ccccc2S(=O)(=O)C(C)C)n1 [NVP-TAE684] + CCNC(=O)c1noc(-c2cc(C(C)C)c(O)cc2O)c1-c1ccc(CN2CCOCC2)cc1 [Luminespib] (partner 0.01 µM)
Procedure, shortened: as §1

[3] = compound: COc1cc(N2CCC(N3CCN(C)CC3)CC2)ccc1Nc1ncc(Cl)c(Nc2ccccc2S(=O)(=O)C(C)C)n1 [NVP-TAE684] + Cc1cc(Nc2cc(N3CCN(C)CC3)nc(Sc3ccc(NC(=O)C4CC4)cc3)n2)n[nH]1 [Tozasertib] (partner 0.1 µM)
Procedure, shortened: as §1

[4] = compound: COc1cc(N2CCC(N3CCN(C)CC3)CC2)ccc1Nc1ncc(Cl)c(Nc2ccccc2S(=O)(=O)C(C)C)n1 [NVP-TAE684] + O=C(c1cc(Cc2n[nH]c(=O)c3ccccc23)ccc1F)N1CCN(C(=O)C2CC2)CC1 [Olaparib] (partner 8 µM)
Procedure, shortened: as §1

[5] = compound: COc1cc2/c(=N/c3ccc(Br)cc3F)nc[nH]c2cc1OCC1CCN(C)CC1 [Vandetanib] + O=C(CCCCCCC(=O)Nc1ccccc1)NO [Vorinostat] (partner 1 µM)
Procedure, shortened: as §1

| Cell Line | relative viability ([1]; first compound 0.2 µM) | relative viability ([1]; first compound 0.6325 µM) | relative viability ([1]; first compound 2 µM) | relative viability ([2]; first compound 0.2 µM) | relative viability ([2]; first compound 0.6325 µM) | relative viability ([2]; first compound 2 µM) | relative viability ([3]; first compound 0.2 µM) | relative viability ([3]; first compound 0.6325 µM) | relative viability ([3]; first compound 2 µM) | relative viability ([4]; first compound 0.2 µM) | relative viability ([4]; first compound 0.6325 µM) | relative viability ([4]; first compound 2 µM) | relative viability ([5]; first compound 0.02 µM) | relative viability ([5]; first compound 0.06325 µM) | relative viability ([5]; first compound 0.2 µM) | relative viability ([5]; first compound 0.6325 µM) | relative viability ([5]; first compound 2 µM) |
| --- | --- | --- | --- | --- | --- | --- | --- | --- | --- | --- | --- | --- | --- | --- | --- | --- | --- |
| 201T | 1.21 | 1.19 | 1.12 | 0.964 | 0.992 | 0.69 | 0.925 | 0.942 | 0.536 | 0.886 | 0.823 | 0.815 | 0.886 | 0.876 | 0.959 | 0.904 | 0.957 |
| A549 | 1.38 |  | 0.263 |  |  |  |  |  |  | 0.308 | 0.387 | 0.3 |  |  |  |  |  |
| A-427 | 0.992 |  | 0.874 | 0.978 | 0.79 | 0.516 | 0.175 | 0.187 | 0.144 | 0.814 | 0.674 | 0.631 | 0.809 | 0.85 | 0.903 | 0.842 | 0.911 |
| ABC-1 |  |  |  | 0.405 | 0.264 | 0.381 | 0.17 | 0.147 | 0.127 | 0.636 | 0.692 | 0.37 | 1.05 | 1.11 | 1.02 | 0.96 | 0.773 |
| BEN | 0.188 | 0.0569 | 0.0697 | 0.444 | 0.172 | 0.34 | 0.513 | 0.492 | 0.392 | 1.04 | 0.971 | 0.894 | 0.6 | 0.56 | 0.613 | 0.552 | 0.569 |
| CAL-12T | 1.35 | 1.18 | 0.407 | 0.185 | 0.655 | 0.0938 | 0.278 | 0.315 | 0.117 | 0.664 | 0.781 | 0.267 | 0.724 | 0.549 | 0.67 | 0.759 | 0.415 |
| COR-L23 | 1.12 | 0.943 | 0.544 | 0.909 | 0.457 | 0.152 | 0.197 | 0.223 | 0.138 | 0.273 | 0.282 | 0.281 | 0.427 | 0.406 | 0.463 | 0.451 | 0.516 |
| COR-L 105 | 0.717 | 0.74 | 0.593 | 0.674 | 0.798 | 0.317 | 0.364 | 0.315 | 0.23 | 0.695 | 0.595 |  | 0.922 | 0.807 | 0.829 | 0.822 | 0.537 |
| Calu-6 | 0.776 | 0.694 | 0.269 |  |  |  |  |  |  | 0.657 | 0.519 | 0.357 |  |  |  |  |  |
| ChaGo-K-1 | 1.54 | 0.644 | 1.03 | 0.661 | 0.67 | 0.44 | 0.214 | 0.206 | 0.16 | 0.422 | 0.418 | 0.345 | 0.735 | 0.765 | 0.767 | 0.797 | 0.798 |
| EBC-1 | 0.323 | 0.247 | 0.245 |  |  |  |  |  |  | 0.713 | 0.661 | 0.55 |  |  |  |  |  |
| EKVX | 0.994 | 0.907 | 0.613 | 0.877 | 0.913 | 0.754 | 0.391 | 0.36 | 0.274 | 0.868 | 0.678 | 0.464 | 0.727 | 0.697 | 0.732 | 0.776 | 0.382 |
| EMC-BAC-2 | 1.12 | 1.13 | 0.695 |  | 1.21 | 0.824 | 0.284 | 0.266 | 0.233 | 0.506 | 0.447 | 0.35 | 0.506 | 0.469 | 0.431 | 0.5 | 0.369 |
| EPLC-272H | 1.02 |  | 1.48 | 0.185 | 0.382 | 0.217 | 0.25 | 0.21 | 0.103 | 0.321 | 0.577 | 0.162 | 0.41 | 0.466 | 0.447 | 0.441 | 0.447 |
| H3255 | 0.6 | 0.417 | 0.382 | 0.897 | 0.828 | 0.765 | 0.639 | 0.717 | 0.409 | 0.539 | 0.532 | 0.407 | 0.763 | 0.704 | 0.808 | 0.507 | 0.644 |
| HARA | 1.02 |  | 0.701 | 0.991 | 0.517 | 0.389 | 0.0965 | 0.0875 | 0.0538 | 0.76 | 0.891 | 0.299 | 0.496 | 0.477 | 0.521 | 0.616 | 0.524 |
| HCC-15 | 0.72 | 0.681 | 0.375 | 0.241 | 0.271 | 0.232 | 0.368 | 0.389 | 0.176 | 0.745 | 0.748 | 0.577 | 0.832 | 0.796 | 0.782 | 0.89 | 0.816 |
| HCC-44 |  | 1.02 | 0.453 |  | 0.912 | 0.272 | 1 | 0.848 | 0.338 | 0.997 | 1.07 | 0.905 | 1.11 | 1.09 | 1.21 | 1.1 | 1.15 |
| HCC-78 | 0.433 | 0.535 | 0.282 |  |  |  | 0.361 | 0.429 | 0.217 | 0.727 | 0.859 | 0.406 | 0.5 | 0.481 | 0.418 | 0.505 | 0.346 |
| HCC-366 | 1.18 | 0.999 | 1.02 |  |  |  | 0.108 | 0.124 | 0.0322 | 0.352 | 0.326 | 0.288 | 0.277 | 0.326 | 0.278 | 0.31 | 0.438 |
| HCC-827 | 0.935 | 0.982 | 0.978 | 0.52 | 0.613 | 0.65 | 0.462 | 0.41 | 0.715 | 0.697 | 0.585 | 0.668 | 0.788 | 0.82 | 0.815 | 0.369 | 0.327 |
